According to the NIST ThermoML archive (doi:10.1016/j.jct.2011.04.010):

How the values were obtained:
[1] = xn = mol fraction of the nth substance listed; details: 101 kPa, Liquid; for speed of sound: 298.15 K, Ecolab MPFU speed of sound meter; for mass density: Vibrating tube method
[2] = molar heat capacity at constant pressure; xn = mol fraction of the nth substance listed; details: 298.15 K, 101 kPa, Liquid, Flow calorimetry

COCCO [2-methoxyethan-1-ol] + CC#N
Details	molar heat capacity at constant pressure, [2] [J/K/mol]	speed of sound, [1] [m/s]
x1 = 0.0504	97.12	–
x1 = 0.09833	–	1281.3
x1 = 0.1006	101.84	–
x1 = 0.1504	106.53	–
x1 = 0.1641	107.81	–
x1 = 0.1936	–	1285.5
x1 = 0.1955	110.77	–
x1 = 0.2	111.19	–
x1 = 0.2999	–	1292.4
x1 = 0.3003	120.53	–
x1 = 0.3989	–	1300.3
x1 = 0.4043	129.87	–
x1 = 0.45	133.82	–
x1 = 0.5007	138.04	–
x1 = 0.5042	–	1309.5
x1 = 0.6021	146.04	–
x1 = 0.605	–	1318.2
x1 = 0.6287	148.03	–
x1 = 0.6497	149.58	–
x1 = 0.7347	–	1328.4
x1 = 0.7453	156.4	–
x1 = 0.7493	156.67	–
x1 = 0.8295	–	1334.3
x1 = 0.9064	167.3	–
x1 = 0.9177	–	1338.1
x1 = 0.9498	170.12	–
x1 = 1	173.25	1339.7

mass density [kg/m3], [1]
Details	308.15 K	318.15 K
x1 = 0.00977	–	758.593
x1 = 0.00998	768.618	–
x1 = 0.02023	–	761.593
x1 = 0.02137	771.87	–
x1 = 0.0304	–	764.483
x1 = 0.03278	775.071	–
x1 = 0.04029	–	767.262
x1 = 0.04058	777.238	–
x1 = 0.04893	–	769.671
x1 = 0.0505	779.979	–
x1 = 0.05932	–	772.54
x1 = 0.06681	–	774.593
x1 = 0.06827	784.813	–
x1 = 0.07039	785.413	–
x1 = 0.07541	786.728	–
x1 = 0.07969	–	778.086
x1 = 0.091	–	781.124
x1 = 0.09332	791.503	–
x1 = 0.1015	–	783.904
x1 = 0.1019	793.744	–
x1 = 0.1512	806.368	–
x1 = 0.1516	–	796.793
x1 = 0.195	817.055	807.486
x1 = 0.2495	829.827	–
x1 = 0.2503	–	820.48
x1 = 0.2981	840.655	–
x1 = 0.304	–	832.469
x1 = 0.4001	861.695	–
x1 = 0.4012	–	852.641
x1 = 0.5006	880.458	–
x1 = 0.5007	–	871.365
x1 = 0.6017	897.597	–
x1 = 0.6038	–	888.921
x1 = 0.7031	–	904.33
x1 = 0.7041	913.484	–
x1 = 0.8014	–	918.191
x1 = 0.8024	927.171	–
x1 = 0.9034	–	931.153
x1 = 0.9066	940.325	–
x1 = 0.9102	940.846	–
x1 = 0.9133	–	932.346
x1 = 0.9213	942.098	–
x1 = 0.9235	–	933.569
x1 = 0.9316	943.319	–
x1 = 0.935	–	934.916
x1 = 0.9417	944.49	–
x1 = 0.9434	–	935.911
x1 = 0.9524	–	936.96
x1 = 0.9528	945.766	–
x1 = 0.9632	946.944	–
x1 = 0.9635	–	938.217
x1 = 0.9702	947.731	–
x1 = 0.9723	–	939.208
x1 = 0.9814	948.974	940.219
x1 = 0.9929	–	941.484
x1 = 0.9931	950.261	–
x1 = 1	951.01	942.253
